In patent publication US20160068466A1, “ESTER DERIVATIVES OF ANDROGEN RECEPTOR MODULATORS AND METHODS FOR THEIR USE” (The University of British Columbia, priority 2013, published 2016):
Where two headings read alike, the source gives them in different places.

Assays:
[1] = target: T1, androgen receptor (Homo sapiens, UniProt P10275, T878A); assay: PSA(6.1 kb)-luciferase reporter assay in LNCaP cells induced with R1881; assay type: cell-based
T1 construct: LNCaP cells express endogenous AR; endogenous in cells; host or cells: LNCaP
T1 sequence (P10275 1-920 T878A): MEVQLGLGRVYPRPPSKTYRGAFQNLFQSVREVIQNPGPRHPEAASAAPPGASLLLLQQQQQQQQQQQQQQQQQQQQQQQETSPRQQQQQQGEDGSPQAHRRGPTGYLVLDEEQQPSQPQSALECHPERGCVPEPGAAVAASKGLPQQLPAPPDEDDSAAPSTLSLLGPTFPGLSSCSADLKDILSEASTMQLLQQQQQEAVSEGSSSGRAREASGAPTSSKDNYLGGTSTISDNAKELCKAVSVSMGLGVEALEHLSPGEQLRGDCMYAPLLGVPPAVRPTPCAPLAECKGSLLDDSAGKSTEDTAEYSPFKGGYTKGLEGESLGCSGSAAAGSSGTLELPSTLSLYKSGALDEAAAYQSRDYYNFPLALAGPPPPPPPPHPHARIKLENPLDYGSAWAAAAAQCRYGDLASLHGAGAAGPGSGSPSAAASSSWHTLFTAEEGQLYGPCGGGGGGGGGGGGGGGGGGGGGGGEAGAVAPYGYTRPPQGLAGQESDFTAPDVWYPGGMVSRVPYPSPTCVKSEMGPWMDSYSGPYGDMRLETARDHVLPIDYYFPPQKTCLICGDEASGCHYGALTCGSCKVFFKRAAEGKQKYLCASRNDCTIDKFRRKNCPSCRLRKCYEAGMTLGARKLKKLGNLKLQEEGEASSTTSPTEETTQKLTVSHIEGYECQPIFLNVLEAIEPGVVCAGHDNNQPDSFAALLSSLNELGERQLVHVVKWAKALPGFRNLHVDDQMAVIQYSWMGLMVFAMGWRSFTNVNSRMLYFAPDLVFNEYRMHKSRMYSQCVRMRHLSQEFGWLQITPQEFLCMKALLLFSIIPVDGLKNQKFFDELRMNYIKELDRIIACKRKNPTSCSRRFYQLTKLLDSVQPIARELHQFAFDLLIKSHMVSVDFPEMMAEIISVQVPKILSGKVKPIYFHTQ
Excerpt: LNCaP cells were employed for experiments because they are well-differentiated human prostate cancer cells in which ligand-dependent and ligand-independent activation of AR by FSK has been characterized (Nazareth et al 1996 J. Biol. Chem. 271, 19900-19907; and Sadar 1999 J Biol. Chem. 274, 7777-7783). LNCaP cells express endogenous AR and secrete prostate-specific antigen (PSA) (Horoszewicz et al 1983 Cancer Res. 43, 1809-1818). LNCaP cells can be grown either as monolayers in cell culture or as tumors in the well-characterized xenograft model that progresses to castration-resistant prostate cancer (CRPC) in castrated hosts (Sato et al 1996 J. Steroid Biochem. Mol. Biol. 58, 139-146; Gleave et al 1991 Cancer Res. 51, 3753-3761; Sato et al 1997 Cancer Res. 57, 1584-1589; and Sadar et al 2002 Mol. Cancer Ther. 1(8), 629-637). R1881 (a synthetic androgen) is employed since it is stable and avoids problems associated with the labile physiological ligand dihydrotestosterone (DHT).
One well characterized ARE-driven reporter gene construct that has been used extensively is the PSA (6.1 kb) enhance/promoter which contains several AREs and is highly inducible by androgens as well as by FSK (Ueda et al 2002 A J. Biol. Chem. 277, 7076-7085).
LNCaP (2.4×10^4 cell/well) cells were seeded on 24-well plates overnight before transfection with PSA(6.1 kb)-luciferase plasmid (0.25 ug/well) in serum-free, red phenol-free media. The next day, cells were pre-treated with compounds of the disclosure for 1 hour before the addition of synthetic androgen, R1881 (1 nM) to trans activate the androgen receptor. After 48 h of incubation with R1881, the cells were harvested, and relative luciferase activity was determined as a read-out for androgen receptor transcriptional activity. Test compounds were added to the cells at various concentrations and activity for each treatment was normalized to the predicted maximal activity induction (in the absence of test compounds, vehicle only). Transfection experiments were performed using triplicate wells.
Further experiments, as outlined in Example 22, were conducted with LNCaP cells transfected with PSA-luciferase plasmid to evaluate the dose response of particular compounds of the disclosure.

[2] = test system: LNCaP xenografts; assay: LNCaP xenograft tumor volume in castrated NOD-SCID mice; assay type: in vivo
Description: Male NOD-SCID mice bearing subcutaneous tumors were castrated when tumor volume was approximately 100 mm3.
Tumors were measured using caliphers and the volume calculated by application of the formula (L×W×H)*0.5236.
Animals bearing LNCaP xenografts were dosed daily by oral gavage with 55.23 mg/kg body weight of Compound 7c or CMC/10% DMSO/Tween-20 vehicle control.
Tumors were measured using caliphers and the volume calculated by application of the formula (L×W×H)*0.5236Male

[3] = test system: LNCaP cells; assay: AlamarBlue proliferation assay, androgen-dependent proliferation of LNCaP cells in response to R1881; assay type: cell-based, human; details: 0.1 nM R1881, 3 days, FIG. 10
Description: Protocol: Proliferation assays using AlamarBlue, wherein the % androgen-dependent proliferation represents proliferation of LNCaP cells in response to R1881 compared to basal levels.
PC3 and LNCaP cells were plated in 96-well plates in respective media plus 0.5% FBS. […] Cell viability was measured using alamarBlue Cell Viability Assay (Invitrogen) following the manufacturer's protocol.

[4] = PSA-luc, mean, read-out: PSA-luc IC50s MEAN
[5] = LNCaP cells transfected with PSA-luciferase plasmid, R1881 1 nM, 48 h, data of FIG. 9, read-out: IC50 (μM + Standard Deviation)

Structure (SMILES) | IC50 [1, 4] [µM] | IC50 [1, 5] [µM] | further results
CC(=O)OC[C@H](COc1ccc(C(C)(C)c2ccc(OC[C@@H](CCl)OC(C)=O)cc2)cc1)OC(C)=O [Compound 7c, (S)-3-(4-(2-(4-((S)-2-acetoxy-3-chloropropoxy)phenyl)propan-2-yl)phenoxy)propane-1,2-diyl diacetate] |  | 8.81 | tumor volume ([2]; Example 25, daily oral gavage, 10% DMSO/corn oil vehicle control, FIG. 11): effective at reducing tumor volume; tumor volume reduction compared with compound A ([2]; Example 25, daily oral gavage, FIG. 11): more effective than its active compound; tumor volume ([2]; Example 26, 55.23 mg/kg body weight daily by oral gavage, CMC/10% DMSO/Tween-20 vehicle control, FIG. 12): effective at reducing tumor volume; potency in proliferation assay relative to active compound (compound A) [3]: twice as potent
CC(=O)OC[C@H](COc1ccc(C(C)(C)c2ccc(OC[C@H]3CO3)cc2)cc1)OC(C)=O [Example 11, (S)-3-(4-(2-(4-((R)-oxiran-2-ylmethoxy)phenyl)propan-2-yl)phenoxy)propane-1,2-diyl diacetate] | 26 |  | 
CC(C)(c1ccc(OC[C@@H](CCl)OC(=O)CCC(=O)O)cc1)c1ccc(OC[C@@H](COC(=O)CCC(=O)O)OC(=O)CCC(=O)O)cc1 [Example 13, (S)-3-(4-(2-(4-((S)-3-chloro-2-hydroxypropoxy)phenyl)propan-2-yl)phenoxy)propane-1,2-diol trisuccinate] | 60.2 |  | 
COC[C@@H](COc1ccc(C(C)(C)c2ccc(OC[C@@H](CCl)OC(C)=O)cc2)cc1)OC(C)=O [Example 21, (S)-1-(4-(2-(4-((S)-2-acetoxy-3-chloropropoxy)phenyl)propan-2-yl)phenoxy)-3-methoxypropan-2-yl acetate] |  | 8.07 | 

Continued, in another order:

IC50 [1, 4] [µM] | IC50 [1, 5] [µM] | Structure (SMILES) | further results
12.1 |  | CC(C)(c1ccc(OC[C@H](O)CCl)cc1)c1ccc(OC[C@H](O)COC(=O)CN)cc1 [(S)-3-(4-(2-(4-((S)-3-chloro-2-hydroxypropoxy)phenyl)propan-2-yl)phenoxy)-2-hydroxypropyl 2-aminoacetate] | 
 | 25.6 | CC(=O)OC[C@@H](O)COc1ccc(C(C)(C)c2ccc(OC[C@H](O)CCl)cc2)cc1 [Compound 1c] | 
 | 11.6 | CC(=O)O[C@H](CCl)COc1ccc(C(C)(C)c2ccc(OC[C@H](O)CO)cc2)cc1 [Compound 3c] | 
15.3 |  | CC(=O)OC[C@H](COc1ccc(C(C)(C)c2ccc(OC[C@H](O)CCl)cc2)cc1)OC(C)=O [Compound 4c, (S)-3-(4-(2-(4-((S)-3-chloro-2-hydroxypropoxy)phenyl)propan-2-yl)phenoxy)propane-1,2-diyl diacetate] | 
 | 9.8 | COC[C@H](O)COc1ccc(C(C)(C)c2ccc(OC[C@H](O)CCl)cc2)cc1 [Compound B, reference compound] | 
